Assay results: ChEMBL document CHEMBL1153064, “From lead to preclinical candidate: optimization of beta-homophenylalanine based inhibitors of dipeptidyl peptidase IV” (Bioorg Med Chem Lett, 2009)

Assay: in vitro
Conditions: human

| SMILES | half-life at 0.75 h, 3 µM (microsomes) | half-life at 0.75 h, 3 µM (liver microsomes) |
| --- | --- | --- |
| N[C@@H](CC(=O)N1CCC[C@H]1COCC1CC1)Cc1cc(F)c(F)cc1F | 30 min |  |
| N[C@@H](CC(=O)N1CCC[C@H]1CNC(=O)CC(F)(F)F)Cc1cc(F)c(F)cc1F |  | > 120 min |
| N[C@@H](CC(=O)N1CCC[C@H]1CNC(=O)C1CCCC1)Cc1cc(F)c(F)cc1F |  | 71 min |
| N[C@@H](CC(=O)N1CCC[C@H]1CNC(=O)C1CCC1)Cc1cc(F)c(F)cc1F |  | 38 min |
